Laboratory results as given in patent US8541457B2, “Aminothiazole derivatives as human stearoyl-CoA desaturase inhibitors” (Xenon Pharmaceuticals Inc., priority 2005, dated 2013).

Compound `Cc1nc(NC(=O)c2ccncc2)sc1C(=O)NCc1ccccc1` [Example 1, N-(5-Benzylcarbamoyl-4-methylthiazol-2-yl)isonicotinamide] has a melting point of 171 to 172 °C.
`CCC(=O)Nc1nc(C)c(C(=O)NCc2ccccc2)s1` [Example 2.1, 4-Methyl-2-propionylaminothiazole-5-carboxylic Acid Benzylamide] showed a melting point of 175 to 176 °C.
Work on `Cc1nc(NC(=O)C2CC2)sc1C(=O)NCc1ccccc1` [Example 2.2, 2-(Cyclopropanecarbonylamino)-4-methylthiazole-5-carboxylic Acid Benzylamide] yielded a melting point of 241 to 243 °C.
`Cc1nc(NC(=O)c2cccc(Cl)c2)sc1C(=O)NCc1ccccc1` [Example 2.19, 2-(3-Chlorobenzoylamino)-4-methylthiazole-5-carboxylic Acid Benzylamide] gave a melting point of 178 to 179 °C.
With `Cc1nc(NC(=O)c2ccc(F)cc2Cl)sc1C(=O)NCc1ccccc1` [Example 2.20, 2-(2-Chloro-4-fluorobenzoylamino)-4-methylthiazole-5-carboxylic Acid Benzylamide] the melting point was 95 to 96 °C.
For `Cc1nc(NC(=O)c2ccccc2OC(F)(F)F)sc1C(=O)NCc1ccccc1` [Example 2.21, 4-Methyl-2-(2-trifluoromethoxybenzoylamino)thiazole-5-carboxylic Acid Benzylamide], the melting point was 140 to 141 °C.
For `Cc1nc(NC(=O)c2cccc(C(F)(F)F)c2)sc1C(=O)NCc1ccccc1` [Example 2.22, 4-Methyl-2-(3-trifluoromethylbenzoylamino)thiazole-5-carboxylic Acid Benzylamide], the melting point was 195 to 196 °C.
With `Cc1nc(NC(=O)c2cccc3ccccc23)sc1C(=O)NCc1ccccc1` [Example 2.23, 4-Methyl-2-[(naphthalene-1-carbonyl)amino]thiazole-5-carboxylic Acid Benzylamide] the melting point was 99 to 101 °C.
For `Cc1nc(NC(=O)c2cc(Cl)cc(Cl)c2)sc1C(=O)NCc1ccccc1` [Example 2.24, 2-(3,5-Dichlorobenzoylamino)-4-methylthiazole-5-carboxylic Acid Benzylamide], the melting point was 104 to 105 °C.
`Cc1nc(NC(=O)c2ccc(C#N)cc2)sc1C(=O)NCc1ccccc1` [Example 2.25, 2-(4-Cyanobenzoylamino)-4-methylthiazole-5-carboxylic Acid Benzylamide] showed a melting point of 256 to 258 °C.
Compound `Cc1nc(NC(=O)c2cccc(C#N)c2)sc1C(=O)NCc1ccccc1` [Example 2.26, 2-(3-Cyanobenzoylamino)-4-methylthiazole-5-carboxylic Acid Benzylamide] has a melting point of 207 to 208 °C.
Compound `Cc1nc(NC(=O)c2cccnc2)sc1C(=O)NCc1ccccc1` [Example 2.27, N-(5-Benzylcarbamoyl-4-methylthiazol-2-yl)nicotinamide] has a melting point of 224 to 226 °C.
`Cc1nc(NC(=O)c2cccc(OC(F)(F)F)c2)sc1C(=O)NCc1ccccc1` [Example 2.28, 4-Methyl-2-(3-trifluoromethoxybenzoylamino)thiazole-5-carboxylic Acid Benzylamide] showed a melting point of 230 to 232 °C.
In the case of `Cc1nc(NC(=O)c2cc(F)cc(F)c2)sc1C(=O)NCc1ccccc1` [Example 2.29, 2-(3,5-Difluorobenzoylamino)-4-methylthiazole-5-carboxylic Acid Benzylamide], the melting point was 84 to 86 °C.
With `Cc1nc(NC(=O)c2cc(Cl)ccc2F)sc1C(=O)NCc1ccccc1` [Example 2.30, 2-(5-Chloro-2-fluorobenzoylamino)-4-methylthiazole-5-carboxylic Acid Benzylamide] the melting point was 175 to 178 °C.
In the case of `Cc1nc(NC(=O)c2cccc(F)c2)sc1C(=O)NCc1ccccc1` [Example 2.31, 2-(3-Fluorobenzoylamino)-4-methylthiazole-5-carboxylic Acid Benzylamide], the melting point was 162 to 165 °C.
Work on `Cc1nc(NC(=O)c2ccc(OC(F)(F)F)cc2)sc1C(=O)NCc1ccccc1` [Example 2.32, 4-Methyl-2-(4-trifluoromethoxybenzoylamino)thiazole-5-carboxylic Acid Benzylamide] yielded a melting point of 168 to 170 °C.
`COc1ccc(C(=O)Nc2nc(C)c(C(=O)NCc3ccccc3)s2)cc1` [Example 2.33, 2-(4-Methoxybenzoylamino)-4-methylthiazole-5-carboxylic Acid Benzylamide] showed a melting point of 203 to 204 °C.
In the case of `COc1cccc(C(=O)Nc2nc(C)c(C(=O)NCc3ccccc3)s2)c1` [Example 2.34, 2-(3-Methoxybenzoylamino)-4-methylthiazole-5-carboxylic Acid Benzylamide], the melting point was 75 to 77 °C.
`Cc1nc(NC(=O)c2cccc(S(C)(=O)=O)c2)sc1C(=O)NCc1ccccc1` [Example 2.35, 2-(3-Methanesulfonylbenzoylamino)-4-methylthiazole-5-carboxylic Acid Benzylamide] gave a melting point of 111 to 113 °C.
`Cc1nc(NC(=O)c2ccccc2S(C)(=O)=O)sc1C(=O)NCc1ccccc1` [Example 2.36, 2-(2-Methanesulfonylbenzoylamino)-4-methylthiazole-5-carboxylic Acid Benzylamide] showed a melting point of 239 to 242 °C.
Compound `Cc1nc(NC(=O)c2ccc(Cl)c(Cl)c2)sc1C(=O)NCc1ccccc1` [Example 2.37, 2-(3,4-Dichlorobenzoylamino)-4-methylthiazole-5-carboxylic Acid Benzylamide] has a melting point of 212 to 214 °C.
Work on `Cc1nc(NC(=O)c2ccc(S(C)(=O)=O)cc2)sc1C(=O)NCc1ccccc1` [Example 2.38, 2-(4-Methanesulfonylbenzoylamino)-4-methylthiazole-5-carboxylic Acid Benzylamide] yielded a melting point of 262 to 265 °C.
Work on `Cc1nc(NC(=O)Cc2ccccc2)sc1C(=O)NCc1ccccc1` [Example 2.39, 4-Methyl-2-phenylacetylaminothiazole-5-carboxylic Acid Benzylamide] yielded a melting point of 63 to 65 °C.
In the case of `Cc1nc(NC(=O)CCc2ccccc2)sc1C(=O)NCc1ccccc1` [Example 2.40, 4-Methyl-2-(3-phenylpropionylamino)thiazole-5-carboxylic Acid Benzylamide], the melting point was 63 to 65 °C.
Compound `Cc1nc(NC(=O)CC2CC2)sc1C(=O)NCc1ccccc1` [Example 2.41, 2-(2-Cyclopropylacetylamino)-4-methylthiazole-5-carboxylic Acid Benzylamide] has a melting point of 136 to 139 °C.
Compound `Cc1ccc(S(=O)(=O)Nc2nc(C)c(C(=O)NCc3ccccc3)s2)cc1` [Example 2.42, 4-Methyl-2-(toluene-4-sulfonylamino)thiazole-5-carboxylic Acid Benzylamide] has a melting point of 242 to 245 °C.
For `CCC(NC(=O)c1sc(NC(=O)c2ccccc2)nc1C)c1ccccc1` (stereo not shown) [Example 3, 2-Benzoylamino-4-methylthiazole-5-carboxylic Acid (1-Phenylpropyl)amide], the melting point was 87 to 89 °C.
In the case of `O=C(Nc1nc(Cl)c(C(=O)NCc2ccccc2)s1)c1ccccc1` [Example 3.1, 2-Benzoylamino-4-chlorothiazole-5-carboxylic Acid Benzylamide], the melting point was 247 to 249 °C.
Compound `Cc1nc(NC(=O)Nc2ccccc2)sc1C(=O)NCc1ccccc1` [Example 4, 4-Methyl-2-(3-phenylureido)thiazole-5-carboxylic Acid Benzylamide] has a melting point greater than 300 °C.
For `Cc1nc(NC(=O)Nc2ccc(F)cc2)sc1C(=O)NCc1ccccc1` [Example 4.1, 2-[3-(4-Fluorophenyl)ureido]-4-methylthiazole-5-carboxylic Acid Benzylamide], the melting point was greater than 300 °C.
